“Also recorded” adds a separate entry of the source.
How the values were obtained:
mice with NEC [1] = experiment: Experimental NEC model in 7-day-old mice (formula gavage, hypoxia, NEC stool bacteria), NEC severity; format: in vivo, mouse; conditions: for NEC severity: I3C oral 50 mg/kg/day, 50 mg/kg/day
Source text: The development of NEC requires TLR4 signaling in the intestinal epithelium. In seeking to understand the biological underpinnings of NEC, it has been discovered that activation within the intestinal epithelium of the receptor for gram-negative bacteria, namely toll-like receptor 4 (TLR4), is critical for the development of NEC. […] Further, mice that lack TLR4 in the intestinal epithelium (herein referred to as TLR4^ΔIEC mice) or globally (TLR4^−/−) were generated and then subjected to the well validated NEC model at 7 days of age. Mice were gavaged with formula, i.e., Similac Advance infant formula (Abbott Nutrition):Esbilac canince milk replacer (PetAb) in a 2:1 ratio at 50 μL/g every 3 hours, 10 mins hypoxia (5% O2 95% N2 in a Billups-Rothenberg chamber) twice daily for four days, and oral gavage of bacteria (1×10^5 cfu/mL) obtained from the stool of a patient with severe NEC. This experimental protocol induces patchy small intestinal necrosis, intestinal edema, and mucosal disruption very similar to human NEC in wild-type mice (FIG. 10), while mice lacking TLR4 in the intestinal epithelium (TLR4^ΔIEC mice) or globally (TLR4^−/−) were protected from NEC development. Mechanistically, TLR4 activation in the intestinal epithelium leads to an increase in apoptosis and a reduction in proliferation within the intestinal epithelium which leads to mucosal injury (FIG. 11). […]
Another aspect of the presently disclosed subject matter was to identify novel agonists of AHR which could be orally administered to prevent or treat experimental NEC, and which have greater potency and pharmacokinetic properties than the dietary-derived ligand I3C. To do so, an AHR-luciferase screen in intestinal epithelial cells (IEC-6 cells) was developed, then compound libraries were screened, and validation in vitro and in vivo using readouts of AHR activation by measuring the expression of Cyp1 was performed. […]

mice with NEC [2] = experiment: I3C to the pregnant mother (50 mg/kg/day), AHR activation and NEC in the pup; format: in vivo, mouse
Source text: The administration of the AHR ligand I3C to the pregnant mother prevents NEC in the newborn mouse (FIG. 16). […] Another aspect of the presently disclosed subject matter is to develop a diet rich in AHR ligands that could be administered to the mother, and protect against the development of NEC. […]

[3] = tested on: TLR4 signaling in the intestinal epithelium; experiment: LPS-induced TLR4 signaling and Cypla1 in the intestinal mucosa of mice; format: in vivo, mouse
AHR signaling pathway = experiment: Maternal I3C administration, Cypla1 mRNA in ileum of offspring with NEC; format: in vivo, mouse; conditions: mums 25 mg/kg oral gavage E7 to P7
Procedure: The pups whose mums received 25 mg/kg indole-3-carbinol (13C) by oral gavage starting from the embryonic age 7 (E7) of the fetus until the postnatal day 7 (P7) were included in maternal […]-rich group, while the pups whose mums received vehicle were included in maternal […]-free group. Necrotizing enterocolitis (NEC) was induced in 7-day-old mouse pups by gavage feeding and hypoxia exposure for 4 days. The ileum was harvested at the end of experiment and the mRNA expression of target genes was analyzed by qPCR. Referring now to FIG. 7, the mRNA expression of Cypla1, the down-stream gene of AHR signaling, was quantified in the ileum of experimental NEC models. Data are represented as mean±SEM; *p<0.05 between indicated groups; each dot represents an individual mouse.

[4] = tested on: AHR activation and TLR4 signaling in enteroids; experiment: Mouse enteroids: Cypla1 induction and TLR4 signaling; format: cell-based; conditions: I3C 200 μM
Source text: AHR activation by I3C or breast milk limits TLR4 signaling in the intestinal epithelium (FIG. 14). In seeking to investigate how AHR signaling attenuates NEC severity, whether AHR activation could limit the degree of TLR4 signaling in the gut was investigated. To do so, enteroids were derived from wild-type mice, which are intestinal cultures containing all cell lineages derived from intestinal crypts, as have been described.

Tlr4 mRNA in the ileum = experiment: Ileal Tlr4 mRNA and microRNA expression in neonatal mice given I3C; format: in vivo, mouse; conditions: 7-day-old mice, 25 mg/kg oral gavage, after 24 hours
Procedure: Neonatal mice at the age of 7 days old were given AHR agonist […] (25 mg/kg) via oral gavage, and the ileal expression of Tlr4 mRNA and microRNAs, which have been reported to down-regulate Tlr4 transcription, were quantified after 24 hours. Referring now to FIG. 24, the mRNA expression of Tlr4 was quantified in the ileum of neonatal mice treated with AHR agonist […]. Data are represented as mean±SEM; *p<0.05 between indicated groups; each dot represents an individual mouse. […] Referring now to FIG. 25, the expression of let-71, miR-223, and miR-146b, which are microRNAs known to inhibit Tlr4 mRNA expression, was quantified in the ileum of neonatal mice treated with AHR agonist […]. Data are represented as mean±SEM; *p<0.05 between indicated groups; each dot represents an individual mouse.

[5] = I3C 50 mg/kg/d to pregnant mice

Q: For `OCc1c[nH]c2ccccc12` [I3C, indole-3-carbinol], which NEC severity (mice with NEC [1]; AHR-/- mice) is on record?
A: The NEC severity was “but not AHR^−/− mice; also recorded: does not protect”.

Q: What about the “expression of proinflammatory gene IL-1” value (mice with NEC [1]; mice afflicted with NEC) of the same compound?
A: The value was “reduced the expression of proinflammatory gene IL-1”.

Q: What about the NEC severity (mice with NEC [1]; wild-type mice) of the same compound?
A: The NEC severity was “reduces NEC severity; also recorded: limits NEC severity”.

Q: And the “NEC severity in the pup” value (mice with NEC [2]; [5])?
A: Its value is “significantly reduced NEC severity; also recorded: prevents NEC in the newborn mouse pup”.

Q: And the “cytokine (IL-6) induction in the pup” value (mice with NEC [2]; [5])?
A: The value was “reduced cytokine induction; also recorded: decreased IL-6 expression”.

Q: What about the “enterocyte apoptosis in the pup” value (mice with NEC [2]; [5]) of the same compound?
A: Its value is “reduced enterocyte apoptosis”.

Q: What about the “mucosal injury / histology in the pup” value (mice with NEC [2]; [5]) of the same compound?
A: The value was “reduced; also recorded: improved histology”.

Q: What about the “proliferation in the pup intestinal mucosa” value (mice with NEC [2]; [5]) of the same compound?
A: Its value is “improved proliferation”.

Q: And the “Cypla1 expression in the intestine (AHR activation in utero)” value (mice with NEC [2]; I3C oral 50 mg/kg/day to the pregnant mother, 50 mg/kg/day)?
A: Its value is “induced the downstream gene Cypla1 in the pup intestine; also recorded: leads to expression of Cypla1 in the intestinal epithelium of both the mother and the fetus”.

Q: What about the “enterocyte apoptosis after TLR4 activation” value ([3]; intestinal mucosa, I3C, LPS) of the same compound?
A: The value was “reversed the deleterious effects of TLR4 activation on enterocyte apoptosis; also recorded: reverses LPS induced apoptosis”.

Q: What about the “mucosal healing / proliferation after TLR4 activation” value ([3]; intestinal mucosa, I3C, LPS) of the same compound?
A: The value was “improved mucosal healing; also recorded: reverses LPS induced apoptosis and impaired proliferation”.

Q: And the “TLR4-induced (LPS) cytokine induction in the intestinal mucosa” value ([3]; wild type mice, I3C 50 mg/kg, LPS 5 mg/kg)?
A: The value was “reduced TLR4-induced (LPS 5 mg/kg) cytokine induction; also recorded: reduces TLR4 signaling; also recorded: reduces LPS-induced IL-6”.

Q: And the Cypla1 expression ([3]; wild-type mice, I3C 50 mg/kg)?
A: Its Cypla1 expression is “induced Cypla1 expression; also recorded: increases Cypla1”.

Q: And the “mRNA expression of Cypla1 (AHR signaling) in offspring” value (AHR signaling pathway)?
A: Its value is “significantly activated the AHR signaling pathway”.

Q: What about the Cypla1 induction ([4]; enteroids from wild-type mice) of the same compound?
A: Its Cypla1 induction is “significantly induced the downstream molecule Cypla1; also recorded: induces Cypla1”.

Q: What about the “TLR4 signaling (cytokine/TNF induction)” value ([4]; enteroids, conditioned media from NEC stool bacteria) of the same compound?
A: The value was “reduced TLR4 signaling; also recorded: reduces TNF”.

Q: And the “expression of let-7i in the ileum” value (Tlr4 mRNA in the ileum)?
A: Its value is “significantly increased”.

Q: And the “expression of miR-146b in the ileum” value (Tlr4 mRNA in the ileum)?
A: The value was “significantly increased”.

Q: What about the “expression of miR-223 in the ileum” value (Tlr4 mRNA in the ileum) of the same compound?
A: The value was “significantly increased”.

Q: And the “mRNA expression of Tlr4 in the ileum” value (Tlr4 mRNA in the ileum)?
A: The value was “significantly reduced the expression of Tlr4 mRNA”.

Reference: patent US11458141B2, “Aryl hydrocarbon receptor (AhR) agonists for the prevention and treatment of inflammatory disorders” (The Johns Hopkins University, priority 2017, dated 2022)
